Target: T1, DNA topoisomerase 1 (Homo sapiens, UniProt P11387)
T1 sequence (P11387 whole entry): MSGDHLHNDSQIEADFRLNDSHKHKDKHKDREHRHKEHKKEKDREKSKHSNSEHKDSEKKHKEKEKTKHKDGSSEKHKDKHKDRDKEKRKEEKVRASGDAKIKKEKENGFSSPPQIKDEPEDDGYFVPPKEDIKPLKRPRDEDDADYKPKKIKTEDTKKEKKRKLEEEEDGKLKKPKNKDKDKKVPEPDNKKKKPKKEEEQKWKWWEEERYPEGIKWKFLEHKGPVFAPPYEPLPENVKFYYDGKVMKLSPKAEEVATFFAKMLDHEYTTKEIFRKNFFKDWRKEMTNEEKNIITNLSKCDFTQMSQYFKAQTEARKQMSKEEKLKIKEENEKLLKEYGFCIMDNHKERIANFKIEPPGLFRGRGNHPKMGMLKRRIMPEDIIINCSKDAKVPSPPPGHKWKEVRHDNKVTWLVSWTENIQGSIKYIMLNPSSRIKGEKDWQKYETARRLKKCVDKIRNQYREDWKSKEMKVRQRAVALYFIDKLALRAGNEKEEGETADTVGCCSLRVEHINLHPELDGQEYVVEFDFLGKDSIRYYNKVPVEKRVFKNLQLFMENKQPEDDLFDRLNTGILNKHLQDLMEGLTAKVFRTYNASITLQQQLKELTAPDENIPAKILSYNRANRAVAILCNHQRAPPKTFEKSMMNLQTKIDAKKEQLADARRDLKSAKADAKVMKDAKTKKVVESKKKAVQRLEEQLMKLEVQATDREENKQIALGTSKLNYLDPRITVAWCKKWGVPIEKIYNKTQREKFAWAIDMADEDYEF
Experiment: Inhibition of topoisomerase I-DNA complex in trapping assay

IC50: 30 nM
Compound: O=C1NC(=O)c2c1c1c3ccc(O)cc3[nH]c1c1c2c2ccc(O)cc2n1C1OC(CO)C(O)C(O)C1O (stereo unspecified)

— ChEMBL document CHEMBL1143564, “Structures of three classes of anticancer agents bound to the human topoisomerase I-DNA covalent complex” (J Med Chem, 2005)
